The text below walks through data of paper PMC3596305, “Escherichia coli NemA Is an Efficient Chromate Reductase That Can Be Biologically Immobilized to Provide a Cell Free System for Remediation of Hexavalent Chromium” (PLoS ONE, 2013).

In the test the test system is T1, KefF_Pa.
T1 construct: gene kefF
Nature of the test: diphenylcarbazide Cr(VI) assay, Lineweaver-Burk. In kind it is biochemical. To be noted: 1 mM NADH, 50 mM Tris-Cl pH 7.0, 22°C; read-out: KM (μM) ^b. The source says: diphenylcarbazide Cr(VI) assay, Lineweaver-Burk on KefF_Pa

By Km is commonly meant the concentration of substrate that gives half-maximal velocity. On to `[O]=[Cr](=[O])([OH])[OH]` [Cr(VI)], for which the Michaelis constant (Km) was found to be 140 µM.
